From patent EP4644383A1 (Jiangsu Yahong Meditech Co., Ltd., priority 2022, dated 2024)

Target: T1, FGFR3 (Homo sapiens, UniProt P22607)
T1 construct: FGFR3's cytoplasmic domain [436-806 (terminal) amino acids]; purchased Carna 08-135
Assay: FGFR3 kinase activity inhibition assay (LanthaScreen TR-FRET)
Assay type: biochemical
Settings: not given
Procedure: PV3552) and 10 mM EDTA were added to quench the kinase reaction, and incubated at 22°C for 60 minutes. • ⑤ The reaction was measured using a PerkinElmer EnVision multimode plate reader through TR-FRET dual wavelength detection. • 1. The RFU values were copied from the Envision program. • 2. The ratio of RFU 520nm/RFU 495nm was calculated. • 3. The value of the ratio was converted to a percentage inhibition value. % Inhibition = (max-data)/(max-min) × 100 [formula] "Min" represents the ratio of the control without enzyme, "max" represents the ratio of the DMSO control, and "data" represents the ratio of the compounds in wells with different concentrations. […] "Top" refers to the maximum response, "Bottom" refers to the minimum response, and "HillSlope" refers to the slope of the curve. According to the same method as that in the FGFR1 kinase activity inhibition assay, the inhibitory activities against FGFR2, FGFR3 and FGFR4 were tested using FGFR2's cytoplasmic domain [399-821 (terminal) amino acids] (Carna: 08-134), FGFR3's cytoplasmic domain [436-806 (terminal) amino acids] (Carna: 08-135) and FGFR4's cytoplasmic domain [460-802 (terminal) amino acids] (Carna: 08-136), respectively. […]

T1 sequence (P22607 436-806): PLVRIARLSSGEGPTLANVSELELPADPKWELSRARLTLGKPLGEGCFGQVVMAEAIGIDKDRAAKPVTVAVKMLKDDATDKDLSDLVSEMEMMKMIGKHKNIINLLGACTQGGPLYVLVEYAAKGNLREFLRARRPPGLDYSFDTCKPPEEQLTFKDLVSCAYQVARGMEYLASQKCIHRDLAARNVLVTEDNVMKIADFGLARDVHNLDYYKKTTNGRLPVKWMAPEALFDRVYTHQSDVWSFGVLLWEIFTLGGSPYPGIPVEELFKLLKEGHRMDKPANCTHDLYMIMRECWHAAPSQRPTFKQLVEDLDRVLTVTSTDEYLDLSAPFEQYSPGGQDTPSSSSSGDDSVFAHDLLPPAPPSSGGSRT

SMILES	IC50 [nM]
C[C@@H](Oc1ccc2[nH]nc(-c3ccc(N4CCOCC4)nc3)c2n1)c1c(Cl)cncc1Cl [Example 33, (R)-4-(5-(5-(1-(3,5-dichloropyridin-4-yl)ethoxy)-1H-pyrazolo[4,3-b]pyridin-3-yl)pyridin-2-yl)morpholine]	10 to 100
C[C@@H](Oc1ccc2[nH]nc(-c3cnn(CC(C)(C)O)c3)c2n1)c1c(Cl)cncc1Cl [Example 38, (R)-1-(4-(5-(1-(3,5-dichloropyridin-4-yl)ethoxy)-1H-pyrazolo[4,3-b]pyridin-3-yl)-1H-pyrazol-1-yl)-2-methylpropan-2-ol]	10 to 100

Same assay, conditions: FGFR3 kinase, TR-FRET; read-out: IC50 (nM) FGFR3

IC50 [nM]	SMILES
> 100	CC(C)c1cc(O[C@H](C)c2c(Cl)cncc2Cl)cc2c(-c3cnn(C)c3)n[nH]c12 [Example 6, (R)-5-(1-(3,5-dichloropyridin-4-yl)ethoxy)-7-isopropyl-3-(1-methyl-1H-pyrazol-4-yl)-1H-indazole]
> 100	Cc1c[nH]c(-c2n[nH]c3c(C)cc(O[C@H](C)c4c(Cl)cncc4Cl)cc23)n1 [Example 9, (R)-5-(1-(3,5-dichloropyridin-4-yl)ethoxy)-7-methyl-3-(4-methyl-1H-imidazol-2-yl)-1H-indazole]
> 100	C[C@@H](Oc1ccc2[nH]nc(-c3cnn4ccccc34)c2n1)c1c(Cl)cncc1Cl [Example 43, (R)-5-(1-(3,5-dichloropyridin-4-yl)ethoxy)-3-(pyrazolo[1,5-a]pyridin-3-yl)-1H-pyrazolo[4,3-b]pyridine]
> 100	C[C@@H](Oc1ccc2[nH]nc(-c3cnn4c3CCCC4)c2n1)c1c(Cl)cncc1Cl [Example 44, (R)-5-(1-(3,5-dichloropyridin-4-yl)ethoxy)-3-(4,5,6,7-tetrahydropyrazolo[1,5-a]pyridin-3-yl)-1H-pyrazolo[4,3-b]pyridine]
10 to 100	CC(C)n1cc(-c2n[nH]c3ccc(O[C@H](C)c4c(Cl)cncc4Cl)nc23)cn1 [Example 47, (R)-5-(1-(3,5-dichloropyridin-4-yl)ethoxy)-3-(1-isopropyl-1H-pyrazol-4-yl)-1H-pyrazolo[4,3-b]pyridine]
> 100	CC(C)Cn1cc(-c2n[nH]c3ccc(O[C@H](C)c4c(Cl)cncc4Cl)nc23)cn1 [Example 51, (R)-5-(1-(3,5-dichloropyridin-4-yl)ethoxy)-3-(1-isobutyl-1H-pyrazol-4-yl)-1H-pyrazolo[4,3-b]pyridine]
> 100	Cn1cc(-c2n[nH]c3ccc(C(=O)NCC(C)(C)O)cc23)cn1 [Example 67, N-(2-hydroxy-2-methylpropyl)-3-(1-methyl-1H-pyrazol-4-yl)-1H-indazole-5-carboxamide]
> 100	Cn1cc(-c2n[nH]c3ccc(C(=O)NCC4CNC4)cc23)cn1 [Example 68, N-(azetidin-3-ylmethyl)-3-(1-methyl-1H-pyrazol-4-yl)-1H-indazole-5-carboxamide]
> 100	Cn1cc(-c2n[nH]c3ccc(C(=O)NCC4CCCNC4)cc23)cn1 (centres unmarked) [Example 69, 3-(1-methyl-1H-pyrazol-4-yl)-N-(piperidin-3-ylmethyl)-1H-indazole-5-carboxamide]
> 100	CNCCNC(=O)c1cc(F)c2[nH]nc(-c3cnn(CCN4CCOCC4)c3)c2c1 [Example 70, 7-fluoro-N-(2-(methylamino)ethyl)-3-(1-(2-morpholinoethyl)-1H-pyrazol-4-yl)-1H-indazole-5-carboxamide]
> 100	CNCCNC(=O)c1cc2c(-c3cnn(C)c3)n[nH]c2cc1-c1cc(OC)cc(OC)c1 [Example 71, 6-(3,5-dimethoxyphenyl)-3-(1-methyl-1H-pyrazol-4-yl)-N-(2-(methylamino)ethyl) -1H-indazole-5-carboxamide]
> 100	CNCCNC(=O)c1cc2c(-c3cnn(C)c3)n[nH]c2cc1OC [Example 72, 6-methoxy-3-(1-methyl-1H-pyrazol-4-yl)-N-(2-(methylamino)ethyl)-1H-indazole-5-carboxamide]
> 100	CNCCNC(=O)c1cc2c(-c3cnn(C)c3)n[nH]c2cc1F [Example 73]
> 100	CNCCn1cc(-c2ccc3[nH]nc(-c4nc(C)c[nH]4)c3c2)nn1 [Example 75, N-methyl-2-(4-(3-(4-methyl-1H-imidazol-2-yl)-1H-indazol-5-yl)-1H-1,2,3-triazol-1-yl)ethan-1-amine]
> 100	Cc1cccc(C)c1NC(=O)c1ccc2[nH]nc(-c3cnn(C)c3)c2c1 [Example 77, N-(2,6-dimethylphenyl)-3-(1-methyl-1H-pyrazol-4-yl)-1H-indazole-5-carboxamide]
> 100	Cn1cc(-c2n[nH]c3ccc(C(=O)NCc4c(Cl)cncc4Cl)cc23)cn1 [Example 78, N-((3,5-dichloropyridin-4-yl)methyl)-3-(1-methyl-1H-pyrazol-4-yl)-1H-indazole-5-carboxamide]
> 100	Cc1c[nH]c(-c2n[nH]c3ccc(C(=O)NCC4CCNC4)cc23)n1 (centres unmarked) [Example 79, 3-(4-methyl-1H-imidazol-2-yl)-N-(pyrrolidin-3-ylmethyl)-1H-indazole-5-carboxamide]
> 100	Cc1c[nH]c(-c2n[nH]c3ccc(C(=O)NCc4ncc[nH]4)cc23)n1 [Example 81]
> 100	CNCCNC(=O)c1ccc2[nH]nc(-c3nc(-c4ccccc4)c[nH]3)c2c1 [Example 82, N-(2-(methylamino)ethyl)-3-(4-phenyl-1H-imidazol-2-yl)-1H-indazole-5-carboxamide]
> 100	CNCCNC(=O)c1ccc2[nH]nc(-c3nc4c([nH]3)CN(C)C4)c2c1 [Example 83, 3-(5-methyl-1,4,5,6-tetrahydropyrrolo[3,4-d]imidazol-2-yl)-N-(2-(methylamino)ethyl)-1H-indazole-5-carboxamide]
> 100	CNCCNC(=O)c1ccc2[nH]nc(-c3nc4cc(N5CCN(C)CC5)ccc4[nH]3)c2c1 [Example 84, N-(2-(methylamino)ethyl)-3-(5-(4-methylpiperazin-1-yl)-1H-benzo[d]imidazol-2-yl)-1H-indazole-5-carboxamide]
> 100	CC(Oc1ccc2[nH]nc(-c3cnn(C)c3)c2c1)C1CCOCC1 (centres unmarked) [Example 86, 3-(1-methyl-1H-pyrazol-4-yl)-5-(1-(tetrahydro-2H-pyran-4-yl)ethoxy)-1H-indazole]
> 100	CC(Oc1ccc2[nH]nc(-c3cnn(C)c3)c2c1)c1ccn2ccnc2c1 (centres unmarked) [Example 89, 5-(1-(imidazo[1,2-a]pyridine-7-yl)ethoxy)-3-(1-methyl-1H-pyrazol-4-yl)-1H-indazole]
> 100	Cn1cc(-c2n[nH]c3ccc(OC4CCCc5cnccc54)cc23)cn1 (centres unmarked) [Example 90, 5-((3-(1-methyl-1H-pyrazol-4-yl)-1H-indazol-5-yl)oxy)-5,6,7,8-tetrahydroisoquin oline]
10 to 100	CC(Oc1ccc2[nH]nc(-c3cnn(C)c3)c2c1)c1nccs1 (centres unmarked) [Example 91, 2-(1-((3-(1-methyl-1H-pyrazol-4-yl)-1H-indazol-5-yl)oxy)ethyl)thiazole]
10 to 100	CC(Oc1ccc2[nH]nc(-c3cnn(C)c3)c2c1)c1ccnc2ncccc12 (centres unmarked) [Example 93, 4-(1-((3-(1-methyl-1H-pyrazol-4-yl)-1H-indazol-5-yl)oxy)ethyl)-1,8-naphthyridine]

Same assay, conditions: read-out: IC50 (nM) FGFR3; FGFR3 kinase, TR-FRET

SMILES	IC50 [nM]
CNCCN(C)C(=O)c1ccc2[nH]nc(-c3cnn(C)c3)c2c1 [Example 66, N-methyl-3-(1-methyl-1H-pyrazol-4-yl)-N-(2-(methylamino)ethyl) -1H-indazole-5-carboxamide]	> 100
